The values that follow come from patent US11596649B2, “Composition in powder form comprising iron and probiotic bacteria” (NESTEC S.A., priority 2016, dated 2023).

In data set [1] the test system is probiotic bacteria. In words: Viability of probiotic bacteria with added iron source (general finding). The class given is cell-based. To be noted: iron source in powder composition with probiotic bacteria, at reconstitution.
The conditions of data set [2]: in human; Hurrell, Iron Fortification of Foods, 1985; cited from earlier work.
Data set [3] deals with Bifidobacterium longum (deposited as ATCC BAA-999). To be noted: 5, 25 and 50 mg Fe2+ per 100 g maltodextrin model composition, FIG. 2.
Protocol: The Samples were produced as follows. The maltodextrin, the dried probiotic powder and the iron source were added together in a 500 mL plastic beaker and mixed for 5 minutes at 34 rpm using a Turbula® T2F dry mixer (WAB, Switzerland). An amount of 25 g of freshly mixed sample was diluted 1/10 in an aqueous tryptone salt solution supplemented with anti-foaming agent at 37° C. After 5 minutes of homogenization using a Masticator® (IUL, Spain), decimal dilutions were performed. The appropriate dilution resulting in 30-300 colonies after incubation was then transferred to a petri dish and mixed with RCA agar according to the pour plate method. Once solidified the plates were incubated at 37° C. under anaerobic conditions. After 48 h of incubation the colonies present on the plates were counted.
Data set [4] concerns Lactobacillus rhamnosus (deposited as CGMCC 1.3724). To be noted: FIG. 4; for loss of live L. rhamnosus in the reconstituted compositions: 10 and 30 mg Fe2+ per 100 g infant formula powder (Nestogen 1).
Protocol: An amount of 25 g of freshly mixed sample was diluted 1/10 in an aqueous tryptone salt solution supplemented with anti-foaming agent at 37° C. After 5 minutes of homogenization using a Masticator® (IUL, Spain), decimal dilutions were performed. The appropriate dilution resulting in 30-300 colonies after incubation was then transferred to a petri dish and mixed with MRS agar according to the pour plate method. Once solidified the plates were incubated at 37° C. under aerobic conditions. After 48 h of incubation the colonies present on the plates were counted.
Data set [5] shares this test system. The conditions noted are these: 10 and 30 mg Fe2+ per 100 g maltodextrin model composition, FIG. 1.
Protocol: (§1) The maltodextrin, the dried probiotic powder and the iron source were added together in a 500 mL plastic beaker and mixed for 5 minutes at 34 rpm using a Turbula® T2F dry mixer (WAB, Switzerland). An amount of 25 g of freshly mixed sample was diluted 1/10 in an aqueous tryptone salt solution supplemented with anti-foaming agent at 37° C. After 5 minutes of homogenization using a Masticator® (IUL, Spain), decimal dilutions were performed. The appropriate dilution resulting in 30-300 colonies after incubation was then transferred to a petri dish and mixed with MRS agar according to the pour plate method. Once solidified the plates were incubated at 37° C. under aerobic conditions. After 48 h of incubation the colonies present on the plates were counted.
In data set [6] the test system is Bifidobacterium longum (deposited as ATCC BAA-999). To be noted: FIG. 5; for loss of live Bifidobacterium longum in the reconstituted compositions: 25 and 50 mg Fe2+ per 100 g infant formula powder (Nestogen 1).
Protocol: The Samples were produced as follows. The infant formula powder, the dried probiotic powder and the iron source were added together in a 500 mL plastic beaker and mixed for 5 minutes at 34 rpm using a Turbula® T2F dry mixer (WAB, Switzerland). An amount of 25 g of freshly mixed sample was diluted 1/10 in an aqueous tryptone salt solution supplemented with anti-foaming agent at 37° C. After 5 minutes of homogenization using a Masticator® (IUL, Spain), decimal dilutions were performed. The appropriate dilution resulting in 30-300 colonies after incubation was then transferred to a petri dish and mixed with RCA agar according to the pour plate method. Once solidified the plates were incubated at 37° C. under anaerobic conditions. After 48 h of incubation the colonies present on the plates were counted.
Data set [7] has as its system Lactobacillus paracasei (deposited as CNCM I-2116). Kind of data set: Survival of Lactobacillus paracasei on reconstitution, maltodextrin model composition (Example 3, plate count). The class given is cell-based. To be noted: 5, 25 and 50 mg Fe2+ per 100 g maltodextrin model composition, FIG. 3.
Protocol: as §1
The conditions of data set [8]: in rat; Hurrell, Iron Fortification of Foods, 1985; cited from earlier work.

Like-named read-outs stand apart in the source and are kept apart here.

Regarding `O=C([O-])CC(O)(CC(=O)O)C(=O)[O-].[Fe+2]` [ferrous citrate], the “loss of viability of probiotic bacteria” value in data set [1] is given as “do not significantly impair”. The average bioavailability in data set [2] is listed as 74%.

`O.O.O.O.O.O.O.O=S(=O)([O-])[O-].[Fe+2]` [ferrous sulphate heptahydrate, reference compound]: the “loss of viability of probiotic bacteria” value in data set [1] is reported as “significant loss”. The “loss of live Bifidobacterium longum in the reconstituted compositions” value in data set [3] and in data set [6] was “significant loss” in each case. Further, the “loss of live L. rhamnosus in the reconstituted compositions” value in data set [4] and in data set [5] was “significant loss” in each case.

Take `O.O=S(=O)([O-])[O-].[Fe+2]` [ferrous sulphate monohydrate]: the “loss of viability of probiotic bacteria” value in data set [1] is on record as “no significant loss”. Further, the “loss of live Bifidobacterium longum in the reconstituted compositions” value in data set [3] and in data set [6] was “no significant loss” throughout. For the same molecule, the “loss of viable Bifidobacterium longum compared with dissolved ferrous sulphate in spray-dried form” value in data set [3] (all iron concentrations) was “significantly lower”; in data set [6] (25 and 50 mg Fe2+ per 100 g infant formula composition, all iron concentrations), “significantly lower”. The “loss of viable Lactobacillus rhamnosus compared with dissolved ferrous sulphate in spray-dried form” value in data set [4] (10 and 30 mg Fe2+ per 100 g infant formula composition, both iron concentrations) is listed as “significantly lower”; in data set [5] (both iron concentrations), “significantly lower”. In addition, the “loss of live L. rhamnosus in the reconstituted compositions” value in data set [4] and in data set [5] was “no significant loss” each time. In addition, the “loss of live Lactobacillus paracasei in the reconstituted compositions” value in data set [7] is “no significant loss”. Moreover, the “loss of viable Lactobacillus paracasei compared with dissolved ferrous sulphate in spray-dried form” value in data set [7] (all iron concentrations) was “significantly lower”.

What is called bioavailability is the share of a dose that reaches the circulation, judged against a reference dose that is usually intravenous. On to ferric citrate, for which the “loss of viability of probiotic bacteria” value in data set [1] was “do not significantly impair”. For the same molecule, the bioavailability in data set [8] was 75%. In addition, in data set [2], the average bioavailability is 31%.
